From US20200346047A1, “METHOD AND KIT FOR HOME CONTROLLED OVARIAN STIMULATION FOR IN VITRO FERTILIZATION” (priority 2019, published 2020)
“And” between values parts separate entries of the source, which are not always exact repeats. Identical values can stand only once. Square brackets hold non-standard residues; d marks the D form. Peptide text beside a SMILES is read from it. d(hArg(Et2)) = CCN=C(NCC)NCCCC[C@@H](N)C(=O)O; hArg(Et2) = CCN=C(NCC)NCCCC[C@H](N)C(=O)O; dPhe(4-Cl) = N[C@H](Cc1ccc(Cl)cc1)C(=O)O; d2Nal = N[C@H](Cc1ccc2ccccc2c1)C(=O)O; d3Pal = N[C@H](Cc1cccnc1)C(=O)O

Legend:
[1] = system: LH blood hormone level; assay: LH blood level under conventional GnRH antagonist injection protocol (Example 1); type: in vivo, female patients
Description: Five female patients were treated with a GnRH antagonist protocol requiring injections of medications.
One patient, patient no. 1, was injected with 150 Units of FSH on days 3 to 12; half a syringe of 150 mcg/0.5 mL of ganirelix acetate on days 11 and 12; and 50 mg of clomiphene citrate on days 3 to 12; and 2.5 mg of letrozole on days 3 to 7. Luteinizing hormone (LH) blood level was 4.3 mIU/mL on day 10 and dropped to 2 mIU/mL on day 12.
A second patient, patient no. 2, was injected with 75 Units of FSH on days 4 to 12 and 150 Units on day 13; half a syringe of 150 mcg/0.5 mL of ganirelix acetate on days 11 to 13; 50 mg of clomiphene citrate on days 10 to 12, and 2.5 mg of letrozole on days 3 to 7. Luteinizing hormone (LH) blood level was 12.0 mIU/mL on day 11 and dropped to 6.3 mIU/mL on day 13.
Three patients, numbered 3 to 5, were injected with 75, 150 and 225 Units of FSH, respectively, on days 4 to 12 and one third a syringe of 150 mcg/0.5 mL of ganirelix acetate on days 11 to 13. Patient no. 3 received 50 mg of clomiphene citrate on days 4 to 12, and 2.5 mg of letrozole on days 4 to 8. Patient no. 4 received 100 mg of clomiphene citrate and 2.5 mg of letrozole on days 4 to 8, and 50 mg of clomiphene citrate on days 9 to 11. Patient no. 5 received no clomiphene citrate or letrozole. Luteinizing hormone (LH) blood level was 12.0, 18.0 and 14.6 mIU/mL, respectively, on day 10 and dropped to 4.9, 16.0 and 14.1 mIU/mL, respectively, on day 12.
Table 2 below provides a comparison of the efficacy of conventional Ganirelex/Cetrotide injectables treatment for IVF in the five representative patients from Example 1 with the home controlled ovarian hyperstimulation method described herein in the five representative patients from Example 2.

[2] = system: LH blood hormone level; assay: LH blood level under home controlled ovarian hyperstimulation method with vaginal elagolix (Example 2); type: in vivo, female patients; conditions: lower dose of elagolix taken as a vaginal suppository instead of orally
Description: On day 9 of the menstrual cycle, the patient is directed to orally take 50 to 150 mg, preferably 100 mg, (one, two, or three 50 mg oral tablets) of clomiphene citrate and to either insert vaginally or take orally, depending on the patient's preference, a gonadotropin-releasing hormone (GnRH) antagonist such as elagolix (marketed as ORILISSA®), instead of the expensive injections of ganirelix acetate (GANIRELEX®) or cetrorelix acetate (marketed as CETROTIDE®) used routinely in conventional practices. A dose of 25 mg (⅛^th of a pill) up to 200 mg of elagolix (1 full pill), preferably 25 mg, will be used, with the dose being the same whether inserted vaginally or taken orally. Elagolix is a GnRH antagonist that is conventionally used in the treatment of pain associated with endometriosis in women, not for the treatment of infertility. By blocking the GnRH receptor, elagolix suppresses LH release by the pituitary gland and thus prevents LH surge. Ultimately, elagolix suppresses gonadal steroid production, thereby reducing circulating levels of sex hormones such as progesterone, estradiol, and testosterone. Elagolix is generally an oral medication (oral tablet), however in the present method, elagolix is a tablet taken mainly as a vaginal suppository, but may be taken orally based on the patient's preference. […]

| SMILES | LH blood hormone level AFTER medication intake ([1]; Example 1, one value per patient (patients 1-5), after ganirelix injections, listed as Conventional Ganielex/Cetrotide Injectables) | LH blood hormone level BEFORE medication intake ([1]; Example 1, one value per patient (patients 1-5), before ganirelix injections, listed as Conventional Ganielex/Cetrotide Injectables) | % Drop in blood LH hormone level ([1]; Example 1, one value per patient (patients 1-5), listed as Conventional Ganielex/Cetrotide Injectables) | Luteinizing hormone (LH) blood level ([1]; patient no. 1, day 10, half a syringe of 150 mcg/0.5 mL ganirelix acetate on days 11 and 12) | drop in LH blood hormone levels ([1]; patient no. 1, day 10 to day 12) | Luteinizing hormone (LH) blood level ([1]; patient no. 1, day 12, half a syringe of 150 mcg/0.5 mL ganirelix acetate on days 11 and 12) | Luteinizing hormone (LH) blood level ([1]; patient no. 2, day 11, half a syringe of 150 mcg/0.5 mL ganirelix acetate on days 11 to 13) | drop in LH blood hormone levels ([1]; patient no. 2, day 11 to day 13) | Luteinizing hormone (LH) blood level ([1]; patient no. 2, day 13, half a syringe of 150 mcg/0.5 mL ganirelix acetate on days 11 to 13) | Luteinizing hormone (LH) blood level ([1]; patient no. 3, day 10, one third a syringe of 150 mcg/0.5 mL ganirelix acetate on days 11 to 13) | drop in LH blood hormone levels ([1]; patient no. 3, day 10 to day 12) | Luteinizing hormone (LH) blood level ([1]; patient no. 3, day 12, one third a syringe of 150 mcg/0.5 mL ganirelix acetate on days 11 to 13) | Luteinizing hormone (LH) blood level ([1]; patient no. 4, day 10, one third a syringe of 150 mcg/0.5 mL ganirelix acetate on days 11 to 13) | drop in LH blood hormone levels ([1]; patient no. 4, day 10 to day 12) | Luteinizing hormone (LH) blood level ([1]; patient no. 4, day 12, one third a syringe of 150 mcg/0.5 mL ganirelix acetate on days 11 to 13) | Luteinizing hormone (LH) blood level ([1]; patient no. 5, day 10, one third a syringe of 150 mcg/0.5 mL ganirelix acetate on days 11 to 13, no clomiphene citrate or letrozole) | drop in LH blood hormone levels ([1]; patient no. 5, day 10 to day 12) | Luteinizing hormone (LH) blood level ([1]; patient no. 5, day 12, one third a syringe of 150 mcg/0.5 mL ganirelix acetate on days 11 to 13, no clomiphene citrate or letrozole) | effectiveness as GnRH antagonist in the patients [2] |
| --- | --- | --- | --- | --- | --- | --- | --- | --- | --- | --- | --- | --- | --- | --- | --- | --- | --- | --- | --- |
| CCN=C(NCC)NCCCC[C@H](NC(=O)[C@H](CC(C)C)NC(=O)[C@@H](CCCCNC(=NCC)NCC)NC(=O)[C@H](Cc1ccc(O)cc1)NC(=O)[C@H](CO)NC(=O)[C@@H](Cc1cccnc1)NC(=O)[C@@H](Cc1ccc(Cl)cc1)NC(=O)[C@@H](Cc1ccc2ccccc2c1)NC(C)=O)C(=O)N1CCC[C@H]1C(=O)N[C@H](C)C(N)=O [Ganirelex, ganirelix acetate] (Ac-[d2Nal][dPhe(4-Cl)][d3Pal]SY[d(hArg(Et2))]L[hArg(Et2)]P[dA]-NH2) | 2.0 mIU/mL and 6.3 mIU/mL and 4.9 mIU/mL and 16.0 mIU/mL | 4.3 mIU/mL and 12.0 mIU/mL (2×) and 18.0 mIU/mL | 3.4% | 4.3 mIU/mL | 53.5% | 2 mIU/mL | 12.0 mIU/mL | 47.5% | 6.3 mIU/mL | 12.0 mIU/mL | 59.25% | 4.9 mIU/mL | 18.0 mIU/mL | 11.1% | 16.0 mIU/mL | 14.6 mIU/mL | 3.4% | 14.1 mIU/mL | – |
| COc1cccc(-c2c(C)n(Cc3c(F)cccc3C(F)(F)F)c(=O)n(C[C@H](NCCCC(=O)O)c3ccccc3)c2=O)c1F [elagolix] | – | – | – | – | – | – | – | – | – | – | – | – | – | – | – | – | – | – | effective GnRH antagonist |
